ChEMBL document CHEMBL5291721, “A preclinical secondary pharmacology resource illuminates target-adverse drug reaction associations of marketed drugs” (Nat Commun, 2023)

Key:
[1] = biological target: Beta-2 adrenergic receptor (Homo sapiens, UniProt P07550); type: functional, cell-based
[2] = biological target: T1, Cholecystokinin receptor type A (Homo sapiens, UniProt P32238)
T1 sequence (P32238 whole entry): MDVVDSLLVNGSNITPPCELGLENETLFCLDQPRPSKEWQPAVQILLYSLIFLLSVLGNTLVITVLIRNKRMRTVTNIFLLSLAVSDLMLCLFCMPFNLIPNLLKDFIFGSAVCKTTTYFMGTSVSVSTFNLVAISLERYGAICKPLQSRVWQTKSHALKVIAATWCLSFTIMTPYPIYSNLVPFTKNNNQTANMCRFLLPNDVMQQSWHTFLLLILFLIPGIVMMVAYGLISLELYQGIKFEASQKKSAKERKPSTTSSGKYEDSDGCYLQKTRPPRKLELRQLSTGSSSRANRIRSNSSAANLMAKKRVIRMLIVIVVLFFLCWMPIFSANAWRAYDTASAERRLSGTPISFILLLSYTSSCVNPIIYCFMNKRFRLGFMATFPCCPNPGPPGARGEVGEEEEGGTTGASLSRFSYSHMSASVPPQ

Adenosine receptor A1 = biological target: T2, Adenosine receptor A1 (Homo sapiens, UniProt P30542)
T2 sequence (P30542 whole entry): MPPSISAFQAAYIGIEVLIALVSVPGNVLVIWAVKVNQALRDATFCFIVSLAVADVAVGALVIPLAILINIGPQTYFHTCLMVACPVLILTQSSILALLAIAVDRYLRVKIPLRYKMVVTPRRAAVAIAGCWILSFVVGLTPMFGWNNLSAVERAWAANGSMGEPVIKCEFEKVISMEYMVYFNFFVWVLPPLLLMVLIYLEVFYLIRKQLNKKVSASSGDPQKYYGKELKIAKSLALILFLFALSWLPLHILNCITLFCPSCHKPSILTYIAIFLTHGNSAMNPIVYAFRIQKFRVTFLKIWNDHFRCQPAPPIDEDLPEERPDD

Histamine H1 receptor = Histamine H1 receptor (Homo sapiens, UniProt P35367)
Sequence of Histamine H1 receptor (P35367 whole entry): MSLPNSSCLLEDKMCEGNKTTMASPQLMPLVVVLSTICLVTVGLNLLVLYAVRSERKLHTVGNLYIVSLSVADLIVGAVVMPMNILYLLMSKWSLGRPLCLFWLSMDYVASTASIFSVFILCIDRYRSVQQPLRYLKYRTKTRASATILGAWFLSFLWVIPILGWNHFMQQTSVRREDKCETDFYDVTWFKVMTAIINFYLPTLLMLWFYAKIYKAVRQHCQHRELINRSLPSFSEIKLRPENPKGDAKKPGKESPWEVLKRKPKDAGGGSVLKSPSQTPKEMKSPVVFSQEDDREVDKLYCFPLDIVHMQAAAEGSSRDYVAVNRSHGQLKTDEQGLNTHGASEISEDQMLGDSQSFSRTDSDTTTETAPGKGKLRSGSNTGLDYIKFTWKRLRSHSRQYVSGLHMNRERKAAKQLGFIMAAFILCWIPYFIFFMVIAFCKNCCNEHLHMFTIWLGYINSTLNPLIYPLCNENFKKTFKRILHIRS

[3] = biological target: T3, Alpha-2A adrenergic receptor (Homo sapiens, UniProt P08913); type: functional, cell-based
T3 sequence (P08913 whole entry): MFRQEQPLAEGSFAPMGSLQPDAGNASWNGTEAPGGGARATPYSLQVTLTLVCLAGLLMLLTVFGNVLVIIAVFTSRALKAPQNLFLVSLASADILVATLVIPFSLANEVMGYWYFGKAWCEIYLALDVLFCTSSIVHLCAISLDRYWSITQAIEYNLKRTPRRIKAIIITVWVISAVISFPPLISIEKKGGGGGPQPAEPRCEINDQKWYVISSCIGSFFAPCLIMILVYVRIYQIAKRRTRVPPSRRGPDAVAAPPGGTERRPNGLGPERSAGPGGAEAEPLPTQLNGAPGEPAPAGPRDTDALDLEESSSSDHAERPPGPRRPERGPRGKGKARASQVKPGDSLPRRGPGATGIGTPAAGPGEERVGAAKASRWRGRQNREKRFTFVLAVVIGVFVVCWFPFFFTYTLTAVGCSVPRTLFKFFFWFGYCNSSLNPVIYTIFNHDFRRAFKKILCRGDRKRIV

[4] = biological target: T4, Alpha-1A adrenergic receptor (Homo sapiens, UniProt P35348); type: functional, cell-based
T4 sequence (P35348 whole entry): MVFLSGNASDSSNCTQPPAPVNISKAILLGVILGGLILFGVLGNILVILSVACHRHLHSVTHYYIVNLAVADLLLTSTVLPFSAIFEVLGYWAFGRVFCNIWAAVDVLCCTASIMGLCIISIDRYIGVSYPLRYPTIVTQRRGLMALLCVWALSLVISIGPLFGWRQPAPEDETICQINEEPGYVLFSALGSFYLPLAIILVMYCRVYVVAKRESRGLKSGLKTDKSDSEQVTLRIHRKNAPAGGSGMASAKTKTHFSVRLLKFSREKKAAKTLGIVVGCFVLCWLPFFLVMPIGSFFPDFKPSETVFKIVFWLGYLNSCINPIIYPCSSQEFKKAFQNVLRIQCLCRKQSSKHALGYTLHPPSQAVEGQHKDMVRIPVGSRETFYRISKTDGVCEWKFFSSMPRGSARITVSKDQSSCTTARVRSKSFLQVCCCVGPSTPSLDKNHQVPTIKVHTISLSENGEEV

Melanocortin receptor 4 = Melanocortin receptor 4 (Homo sapiens, UniProt P32245)
Sequence of Melanocortin receptor 4 (P32245 whole entry): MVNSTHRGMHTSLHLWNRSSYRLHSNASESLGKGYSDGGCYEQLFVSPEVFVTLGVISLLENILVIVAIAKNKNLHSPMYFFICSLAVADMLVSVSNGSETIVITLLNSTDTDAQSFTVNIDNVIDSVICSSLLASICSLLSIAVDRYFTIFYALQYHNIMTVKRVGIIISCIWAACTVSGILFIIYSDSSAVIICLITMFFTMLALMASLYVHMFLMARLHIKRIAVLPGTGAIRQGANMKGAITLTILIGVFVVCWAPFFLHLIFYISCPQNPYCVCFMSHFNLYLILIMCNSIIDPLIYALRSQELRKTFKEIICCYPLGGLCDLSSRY

[5] = biological target: T4, Alpha-1A adrenergic receptor
Cannabinoid receptor 1 = Cannabinoid receptor 1 (Homo sapiens, UniProt P21554)
Sequence of Cannabinoid receptor 1 (P21554 whole entry): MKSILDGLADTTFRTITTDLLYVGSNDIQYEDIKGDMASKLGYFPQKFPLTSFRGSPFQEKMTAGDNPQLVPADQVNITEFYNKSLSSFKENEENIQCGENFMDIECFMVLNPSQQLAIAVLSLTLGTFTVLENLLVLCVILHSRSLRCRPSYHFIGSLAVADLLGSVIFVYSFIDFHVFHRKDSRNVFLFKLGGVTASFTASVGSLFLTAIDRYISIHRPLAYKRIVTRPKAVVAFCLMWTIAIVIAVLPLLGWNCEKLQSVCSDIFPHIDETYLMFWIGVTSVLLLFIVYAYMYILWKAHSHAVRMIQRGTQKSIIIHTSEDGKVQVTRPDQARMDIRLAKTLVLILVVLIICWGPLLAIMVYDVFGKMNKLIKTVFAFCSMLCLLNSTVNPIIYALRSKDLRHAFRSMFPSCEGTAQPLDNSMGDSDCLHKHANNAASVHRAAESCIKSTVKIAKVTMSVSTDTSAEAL

Mu-type opioid receptor = Mu-type opioid receptor (Homo sapiens, UniProt P35372)
Sequence of Mu-type opioid receptor (P35372 whole entry): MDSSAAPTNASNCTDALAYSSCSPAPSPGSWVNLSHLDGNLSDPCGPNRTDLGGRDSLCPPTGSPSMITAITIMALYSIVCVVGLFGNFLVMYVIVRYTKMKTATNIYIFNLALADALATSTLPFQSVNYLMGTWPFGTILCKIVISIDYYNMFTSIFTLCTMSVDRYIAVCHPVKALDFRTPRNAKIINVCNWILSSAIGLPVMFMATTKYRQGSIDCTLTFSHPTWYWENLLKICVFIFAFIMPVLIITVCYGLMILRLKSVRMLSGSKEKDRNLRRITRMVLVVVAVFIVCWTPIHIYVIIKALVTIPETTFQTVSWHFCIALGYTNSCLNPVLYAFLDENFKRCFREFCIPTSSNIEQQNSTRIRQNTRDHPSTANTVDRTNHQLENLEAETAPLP
Note: assay procedure not described here.

Sequence of Beta-2 adrenergic receptor (P07550 whole entry): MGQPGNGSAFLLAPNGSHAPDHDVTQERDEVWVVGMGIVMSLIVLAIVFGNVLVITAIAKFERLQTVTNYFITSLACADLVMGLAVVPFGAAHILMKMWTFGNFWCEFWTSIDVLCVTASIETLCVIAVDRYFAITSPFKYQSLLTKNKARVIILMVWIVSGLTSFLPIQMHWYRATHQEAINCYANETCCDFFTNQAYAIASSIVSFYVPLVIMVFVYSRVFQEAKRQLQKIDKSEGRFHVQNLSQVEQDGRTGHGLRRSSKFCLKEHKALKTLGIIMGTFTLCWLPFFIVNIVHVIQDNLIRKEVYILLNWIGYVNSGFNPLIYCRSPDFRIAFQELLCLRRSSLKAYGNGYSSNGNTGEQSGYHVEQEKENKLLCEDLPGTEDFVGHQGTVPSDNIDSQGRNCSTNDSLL

Structure (SMILES)	AC50 [1] [µM]	AC50 [2] [µM]	AC50 (Adenosine receptor A1) [µM]	AC50 (Histamine H1 receptor) [µM]	AC50 [3] [µM]	AC50 [4] [µM]	AC50 (Melanocortin receptor 4) [µM]	AC50 [5] [µM]	AC50 (Cannabinoid receptor 1) [µM]	AC50 (Mu-type opioid receptor) [µM]
C=C1CC[C@@]2(O)[C@H]3Cc4ccc(O)c5c4[C@@]2(CCN3CC2CC2)[C@H]1O5	> 30	> 30	> 30	> 30	> 30					
Nc1ncnc2c1ncn2[C@@H]1O[C@H](COP(=O)(O)O)[C@@H](O)[C@H]1O [ADENOSINE PHOSPHATE]	9.5	> 30	> 30	> 30	> 30	> 30				
CCCC(CCC)C(=O)O[C@H]1C[C@H]2CC[C@@H](C1)[N+]2(C)C [ANISOTROPINE]	> 30	> 30	> 30	> 30	> 30	19				
CCC(C(=O)O)c1ccc(CC(C)C)cc1 (centres undefined) [BUTIBUFEN]	> 30	> 30	> 30	> 30	> 30	> 30				
CCCCCOC(=O)Nc1nc(=O)n([C@@H]2O[C@H](C)[C@@H](O)[C@H]2O)cc1F [CAPECITABINE]	> 30	> 30	> 30	> 30	> 30	> 30				
CC(C)C(=O)OCC(=O)[C@@]12O[C@H](C3CCCCC3)O[C@@H]1C[C@H]1[C@@H]3CCC4=CC(=O)C=C[C@]4(C)[C@H]3[C@@H](O)C[C@@]12C [CICLESONIDE]		> 10	> 30	> 10	> 10	> 30	> 10	> 10	12.1	> 30
CCCCOc1cc(C(=O)NCCN(CC)CC)c2ccccc2n1 [DIBUCAINE]		> 30	> 30	> 10	> 10	> 30	> 30	> 10	> 10	> 30
O=C1CN=C(c2ccccc2)c2cc(Cl)ccc2N1CC(F)(F)F [HALAZEPAM]	> 30	> 30	> 30	> 30	> 30	> 30				
CCC1(C2=CCCCCC2)C(=O)NC(=O)NC1=O [HEPTABARBITAL]		> 10	> 10	> 10	> 10	> 30	> 10	> 10	> 10	> 30
C1=Cc2cccc(OCC3CNCCO3)c2C1 (centres undefined) [INDELOXAZINE]	> 30	> 30	> 30	17	> 30	> 30				
CC(C)[N+](C)(CCC(C(N)=O)(c1ccccc1)c1ccccc1)C(C)C [ISOPROPAMIDE]		> 10	> 10	> 10	> 10		> 10	> 10	> 10	> 30
COC(=O)C1=C(C)NC(C)=C(C(=O)OC(C)C)C1c1cccc2nonc12 (centres undefined) [ISRADIPINE]		> 30	> 30	> 30	> 10	> 30	> 30	> 30	> 10	> 30
O=C(O)Cc1cn(-c2ccccc2)nc1-c1ccc(Cl)cc1 [LONAZOLAC]	> 30	> 30	> 30	> 30	> 30	> 30				
C#C[C@]1(O)CC[C@H]2[C@@H]3CCC4=CCCC[C@@H]4[C@H]3CC[C@@]21C [LYNESTRENOL]	> 30	> 30	> 30	> 30	> 30	> 30				
CC1=CC(=O)c2ccccc2C1=O [MENADIONE]		> 10	> 30	> 30	> 10		> 10	> 30	> 10	> 30
Cc1cccc(C)c1NC(=O)C1CCCCN1C (centres undefined) [MEPIVACAINE]	> 30	> 30	> 30		> 30	> 30				
C[C@H]1C[C@@H]2[C@H]([C@@H](O)C[C@@]3(C)[C@H]2CC[C@]3(O)C(=O)COC(=O)CCC(=O)O)[C@@]2(C)C=CC(=O)C=C12 [METHYLPREDNISOLONE HEMISUCCINATE]	> 30	> 30	> 30	> 30	> 30					
C[C@]12CCC(=O)C=C1CC[C@@H]1[C@@H]2CC[C@@]2(C)[C@H]1CC[C@]2(C)O [METHYLTESTOSTERONE]	> 30	> 30	> 30		> 30	27				
CCCCC(C)(O)C/C=C/[C@H]1[C@H](O)CC(=O)[C@@H]1CCCCCCC(=O)OC (some centres undefined) [MISOPROSTOL]	> 30	> 30	> 30	> 30	> 30					
COc1c(C)c2c(c(O)c1C/C=C(\C)CCC(=O)OCCN1CCOCC1)C(=O)OC2 [MYCOPHENOLATE MOFETIL]	> 30	> 30	> 30		> 30	> 30				
CCCCCCC(C)(C)c1cc(O)c2c(c1)OC(C)(C)C1CCC(=O)CC21 (centres undefined) [NABILONE]	> 30	> 30	> 30	> 30	> 30	> 30				
CN1CCCN=C1COC(=O)C(O)(c1ccccc1)C1CCCCC1 (centres undefined) [OXYPHENCYCLIMINE]		> 10	> 10	0.99	> 10		> 10	> 10	> 10	> 30
CN1CCC2=C(C1)C(c1ccccc1)c1ccccc12 (centres undefined) [PHENINDAMINE]		> 10	> 10	8.1	> 10		> 10	> 10	> 10	> 30
CN1C(=O)CC(c2ccccc2)C1=O (centres undefined) [PHENSUXIMIDE]		> 10	> 10	> 10	> 10		> 10	> 10	> 10	> 30
CCCOc1ccc(C(=O)OCCN(CC)CC)cc1N [PROPARACAINE]	> 30	> 30	> 30		> 30	> 30				
Nc1nc2ccc(OC(F)(F)F)cc2s1 [RILUZOLE]	> 30	> 30	> 30		> 30	> 30				
CC(=O)NS(=O)(=O)c1ccc(N)cc1 [SULFACETAMIDE]		> 10	> 10	> 10	> 10		> 10	> 10	> 10	> 30
Cc1c(Cl)cccc1Nc1ccccc1C(=O)O [TOLFENAMIC ACID]	> 30	> 30	> 30	> 30	> 30	9.5				
